Experimental data reported in patent US20060069132A1, “Azolecarboxamide herbicides” (priority 2004, published 2006).
Like-named read-outs stand apart in the source and are kept apart here.

Key:
pigweed = experiment: Test B pre-/postemergence herbicide test; format: in vivo, Amaranthus retroflexus; settings: Amaranthus retroflexus, 336 h; for pest or weed control at 500 g/ha: 500 g ai/ha
Outline: (§1)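 Greenhouse pot assay with simultaneous preemergence (treated seed) and postemergence (2–18 cm seedlings) applications of surfactant-containing, non-phytotoxic solvent formulations. Response scored visually 13–15 days later on a 0–100 scale, 100 meaning complete control.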

lambsquarters = experiment: Test B pre-/postemergence herbicide test; format: in vivo, Chenopodium album; settings: Chenopodium album, 336 h; for pest or weed control at 500 g/ha: 500 g ai/ha
Outline: as §1

blackgrass = experiment: Test B postemergence herbicide test; format: in vivo, Alopecurus myosuroides; settings: Postemergence, scale 0 (no effect) to 100 (complete control)
Outline: (§2)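 Each value is a visual 0–100 response rating taken against controls 13 to 15 days after treatment in the greenhouse. Plants received formulated chemical postemergence at the 1- to 4-leaf stage or, in flooded paddy, at the 2-leaf stage.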

[1] = system: small flower umbrella sedge; experiment: Test B flooded paddy test; format: in vivo, Cyperus difformis; settings: Cyperus difformis, 336 h, 1000 g ai/ha, visual rating, scale 0 to 100 (0 no effect, 100 complete control), 13 to 15 days, read-out: Sedge, Umbrella plant response rating
Outline: as §2

morningglory = experiment: Test B pre-/postemergence herbicide test; format: in vivo, Ipomoea coccinea; settings: Ipomoea, 336 h; for pest or weed control at 500 g/ha: 500 g ai/ha
Outline: (§3)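 Evaluation is visual, comparing treated with control plants on a scale where 0 means no effect and 100 means full control. Treatments were preemergence, or postemergence on seedlings 2–18 cm tall, and held 13–15 days in the greenhouse.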

giant foxtail = experiment: Test B pre-/postemergence herbicide test; format: in vivo, Setaria faberi; settings: Setaria faberi, 336 h; for pest or weed control at 500 g/ha: 500 g ai/ha
Outline: as §1

barnyardgrass [2] = experiment: Test B flooded paddy test; format: in vivo, Echinochloa crus-galli; settings: Echinochloa crus-galli, 336 h, 1000 g ai/ha, visual rating, scale 0 to 100 (0 no effect, 100 complete control), 13 to 15 days, read-out: Barnyardgrass plant response rating
Outline: as §2

cocklebur = experiment: Test B pre-/postemergence herbicide test; format: in vivo, Xanthium strumarium; settings: Xanthium strumarium; for pest or weed control at 500 g/ha: 500 g ai/ha
Outline: as §3

wheat = experiment: Test B postemergence herbicide test; format: in vivo, Triticum aestivum; settings: Postemergence, scale 0 (no effect) to 100 (complete control)
Outline: (§4)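 Postemergence plants were sprayed with formulated test chemicals at 2 to 18 cm height (1- to 4-leaf stage); paddy species were grown to the 2-leaf stage. After 13 to 15 days in a greenhouse, injury was rated visually against untreated controls on a 0–100 scale (0 = no effect, 100 = complete control).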

barnyardgrass [3] = experiment: Test B pre-/postemergence herbicide test; format: in vivo, Echinochloa crus-galli; settings: Echinochloa crus-galli; for pest or weed control at 500 g/ha: 500 g ai/ha
Outline: as §3

ducksalad = experiment: Test B flooded paddy test; format: in vivo, Heteranthera limosa; settings: Heteranthera limosa, 336 h, 1000 g ai/ha, visual rating, scale 0 to 100 (0 no effect, 100 complete control), 13 to 15 days, read-out: Ducksalad plant response rating
Outline: as §2

Surinam grass = experiment: Test B pre-/postemergence herbicide test; format: in vivo, Urochloa decumbens; settings: Urochloa decumbens; for pest or weed control at 500 g/ha: 500 g ai/ha
Outline: as §1

corn = experiment: Test B pre-/postemergence herbicide test; format: in vivo, Zea mays; settings: Zea mays
Outline: as §1

large crabgrass = experiment: Test B pre-/postemergence herbicide test; format: in vivo, Digitaria sanguinalis; settings: Digitaria sanguinalis; for pest or weed control at 500 g/ha: 500 g ai/ha
Outline: as §1

wild oat = experiment: Test B postemergence herbicide test; format: in vivo, Avena fatua; settings: Postemergence, scale 0 (no effect) to 100 (complete control)
Outline: as §4

rice = experiment: Test B flooded paddy test; format: in vivo, Oryza sativa; settings: Oryza sativa, 336 h, 1000 g ai/ha, visual rating, scale 0 to 100 (0 no effect, 100 complete control), 13 to 15 days, read-out: Rice plant response rating
Outline: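 Greenhouse test; postemergence application to plants at 1–4 leaves (2–18 cm); paddy species at 2 leaves; evaluated visually vs controls at 13–15 days; scale 0–100 (100 = complete control).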

[4] = 500 g ai/ha, visual rating after 13 to 15 days

Work on `CCNC(=O)c1ccc(F)c(NC(=O)c2cc(C(C)(C)C)nn2CC)c1` [Compound 2, 3-(1,1-dimethylethyl)-1-ethyl-N-[5-[(ethylamino)carbonyl]-2-fluorophenyl]-1H-pyrazole-5-carboxamide] yielded a pest or weed control at 125 g/ha (pigweed; post-emergence, Postemergence, 125 g ai/ha, scale 0 (no effect) to 100 (complete control), read-out: Pigweed plant response rating) of 60%, a pest or weed control at 500 g/ha (pigweed; post-emergence, Postemergence, visual rating after 13 to 15 days, scale 0 (no effect) to 100 (complete control), read-out: Plant response rating, Pigweed) of 70% and a pest or weed control at 500 g/ha (pigweed; pre-emergence, Preemergence, scale 0 to 100, read-out: Pigweed plant response rating) of 100%. For the same compound, the pest or weed control at 125 g/ha (lambsquarters; post-emergence, Postemergence, 125 g ai/ha, scale 0 (no effect) to 100 (complete control), read-out: Lambsquarters plant response rating) was 80%, the pest or weed control at 500 g/ha (lambsquarters; post-emergence, Postemergence, visual rating after 13 to 15 days, scale 0 (no effect) to 100 (complete control), read-out: Plant response rating, Lambsquarters) was 90% and the pest or weed control at 500 g/ha (lambsquarters; pre-emergence, Preemergence, scale 0 to 100, read-out: Lambsquarters plant response rating) was 100%. For the same compound, the pest or weed control at 125 g/ha (blackgrass; Alopecurus myosuroides, post-emergence, 336 h, 125 g ai/ha, read-out: Blackgrass plant response rating) was 10%, the “Plant response rating, Blackgrass” value (blackgrass; [4]) was 30 and the pest or weed control at 1000 g/ha [1] was 90%. For the same compound, the pest or weed control at 125 g/ha (morningglory; post-emergence, Postemergence, 125 g ai/ha, scale 0 (no effect) to 100 (complete control), read-out: Morningglory plant response rating) was 30%, the pest or weed control at 500 g/ha (morningglory; post-emergence, Postemergence, visual rating after 13 to 15 days, scale 0 (no effect) to 100 (complete control), read-out: Plant response rating, Morningglory) was 70% and the pest or weed control at 500 g/ha (morningglory; pre-emergence, Preemergence, scale 0 to 100, read-out: Morningglory plant response rating) was 90%. It also gave a pest or weed control at 125 g/ha (giant foxtail; post-emergence, Postemergence, 125 g ai/ha, scale 0 (no effect) to 100 (complete control), read-out: Foxtail, Giant plant response rating) of 30%, a pest or weed control at 500 g/ha (giant foxtail; post-emergence, Postemergence, visual rating after 13 to 15 days, scale 0 (no effect) to 100 (complete control), read-out: Plant response rating, Foxtail, Giant) of 30% and a pest or weed control at 500 g/ha (giant foxtail; pre-emergence, Preemergence, scale 0 to 100, read-out: Foxtail, Giant plant response rating) of 100%. It also gave a pest or weed control at 1000 g/ha (barnyardgrass [2]) of 90%, a pest or weed control at 125 g/ha (cocklebur; post-emergence, Postemergence, 125 g ai/ha, scale 0 (no effect) to 100 (complete control), read-out: Cocklebur plant response rating) of 50% and a pest or weed control at 500 g/ha (cocklebur; post-emergence, Postemergence, visual rating after 13 to 15 days, scale 0 (no effect) to 100 (complete control), read-out: Plant response rating, Cocklebur) of 80%. For the same compound, the pest or weed control at 500 g/ha (cocklebur; pre-emergence, Preemergence, scale 0 to 100, read-out: Cocklebur plant response rating) was 90%, the “Plant response rating, Wheat” value (wheat; [4]) was 20 and the plant injury at 125 g/ha (wheat; Triticum aestivum, post-emergence, 336 h, 125 g ai/ha, read-out: Wheat plant response rating) was 20%. It also gave a pest or weed control at 125 g/ha (barnyardgrass [3]; post-emergence, Postemergence, 125 g ai/ha, scale 0 (no effect) to 100 (complete control), read-out: Barnyardgrass plant response rating) of 30%, a pest or weed control at 500 g/ha (barnyardgrass [3]; post-emergence, Postemergence, visual rating after 13 to 15 days, scale 0 (no effect) to 100 (complete control), read-out: Plant response rating, Barnyardgrass) of 70% and a pest or weed control at 500 g/ha (barnyardgrass [3]; pre-emergence, Preemergence, scale 0 to 100, read-out: Barnyardgrass plant response rating) of 100%. For the same compound, the pest or weed control at 1000 g/ha (ducksalad) was 90%, the pest or weed control at 125 g/ha (Surinam grass; post-emergence, Postemergence, 125 g ai/ha, scale 0 (no effect) to 100 (complete control), read-out: Surinam Grass plant response rating) was 20% and the pest or weed control at 500 g/ha (Surinam grass; post-emergence, Postemergence, visual rating after 13 to 15 days, scale 0 (no effect) to 100 (complete control), read-out: Plant response rating, Surinam Grass) was 50%. It also gave a pest or weed control at 500 g/ha (Surinam grass; pre-emergence, Preemergence, scale 0 to 100, read-out: Surinam Grass plant response rating) of 100%, a plant injury at 125 g/ha (corn; post-emergence, Postemergence, 125 g ai/ha, scale 0 (no effect) to 100 (complete control), read-out: Corn plant response rating) of 20% and a Corn plant response rating (crop injury, 0 = no effect, 100 = complete kill) at 500 g/ha (corn; post-emergence, Postemergence, 500 g ai/ha, visual rating after 13 to 15 days, scale 0 (no effect) to 100 (complete control)) of 20%. For the same compound, the plant injury at 500 g/ha (corn; pre-emergence, Preemergence, 500 g ai/ha, scale 0 to 100, read-out: Corn plant response rating) was 80%, the pest or weed control at 125 g/ha (large crabgrass; post-emergence, Postemergence, 125 g ai/ha, scale 0 (no effect) to 100 (complete control), read-out: Crabgrass, Large plant response rating) was 20% and the pest or weed control at 500 g/ha (large crabgrass; post-emergence, Postemergence, visual rating after 13 to 15 days, scale 0 (no effect) to 100 (complete control), read-out: Plant response rating, Crabgrass, Large) was 30%. For the same compound, the pest or weed control at 500 g/ha (large crabgrass; pre-emergence, Preemergence, scale 0 to 100, read-out: Crabgrass, Large plant response rating) was 100%, the pest or weed control at 125 g/ha (wild oat; Avena fatua, post-emergence, 336 h, 125 g ai/ha, read-out: Oat, Wild plant response rating) was 20% and the “Plant response rating, Oat, Wild” value (wild oat; [4]) was 30. For the same compound, the plant injury at 1000 g/ha (rice) was 70%.
